Values joined by “and” are separate entries in the source; they are usually repeats but may differ in a detail not shown here. Equal values may be shown once. Read-outs that look alike come from different tables or passages of the source. Marks after values point to notes of the source that are not given here.
What was measured:
[1] = molecular target: T1, recombinant human HDAC6 enzyme (Homo sapiens, UniProt Q9UBN7); test: HDAC6 enzyme inhibition assay; format: biochemical; details: mean ± SEM of three experiments
T1 construct: purchased Enzo Life Sciences, Inc. USA
T1 sequence (Q9UBN7 1-1215): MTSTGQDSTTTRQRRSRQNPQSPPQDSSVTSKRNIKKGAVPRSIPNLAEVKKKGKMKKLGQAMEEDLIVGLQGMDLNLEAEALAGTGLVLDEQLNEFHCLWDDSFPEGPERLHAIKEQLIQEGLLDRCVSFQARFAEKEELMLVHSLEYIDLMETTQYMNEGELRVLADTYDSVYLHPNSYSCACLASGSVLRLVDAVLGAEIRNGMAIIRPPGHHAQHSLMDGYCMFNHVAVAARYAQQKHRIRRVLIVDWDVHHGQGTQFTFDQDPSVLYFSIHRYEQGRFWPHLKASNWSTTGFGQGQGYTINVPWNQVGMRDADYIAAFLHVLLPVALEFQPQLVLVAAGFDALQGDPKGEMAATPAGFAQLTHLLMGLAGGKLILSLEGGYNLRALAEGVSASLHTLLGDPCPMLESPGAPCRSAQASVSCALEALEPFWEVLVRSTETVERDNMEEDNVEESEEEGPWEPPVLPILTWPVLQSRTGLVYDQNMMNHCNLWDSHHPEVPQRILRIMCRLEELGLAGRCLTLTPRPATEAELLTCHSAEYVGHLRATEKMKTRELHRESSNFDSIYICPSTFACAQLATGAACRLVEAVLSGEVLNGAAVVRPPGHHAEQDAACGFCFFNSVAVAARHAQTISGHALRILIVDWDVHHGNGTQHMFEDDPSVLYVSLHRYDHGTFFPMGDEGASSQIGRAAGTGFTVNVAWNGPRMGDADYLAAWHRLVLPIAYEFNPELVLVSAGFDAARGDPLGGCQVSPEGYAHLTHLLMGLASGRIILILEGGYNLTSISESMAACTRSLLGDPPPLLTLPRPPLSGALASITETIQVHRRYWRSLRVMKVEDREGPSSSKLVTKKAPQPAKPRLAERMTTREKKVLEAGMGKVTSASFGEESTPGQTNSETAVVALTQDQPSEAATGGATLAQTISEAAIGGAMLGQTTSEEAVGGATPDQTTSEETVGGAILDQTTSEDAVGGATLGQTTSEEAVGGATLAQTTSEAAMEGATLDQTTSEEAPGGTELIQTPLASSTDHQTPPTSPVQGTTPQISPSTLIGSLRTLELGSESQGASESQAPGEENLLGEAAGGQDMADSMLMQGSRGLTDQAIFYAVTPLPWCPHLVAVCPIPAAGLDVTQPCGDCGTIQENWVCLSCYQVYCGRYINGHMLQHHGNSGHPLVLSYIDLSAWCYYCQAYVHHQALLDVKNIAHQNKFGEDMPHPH
Procedure: (§1) The HDAC1 and 6 assays were carried out with few modifications from the previously described method. In brief, 10 µl of different concentration of test compounds was added to 40 µl of reaction mixture containing HDAC assay buffer, HDAC substrate, and recombinant human HDAC1 and 6 enzymes. The reactions were incubated for 30 min at 37°C. Then, 50 µl of trypsin stop solution was added in each well, and the plate was incubated at room temperature for an additional 20 min. Fluorescence intensity was measured at an excitation of 360 nm and an emission of 460 nm using a fluorescence microplate reader (FLx800, BioTek Instruments Inc. Winooski, VT, USA).

p21^Waf1/Cip1 = test: Western blotting, p21Waf1/Cip1 expression; format: cell-based, human; details: HCT116 cells, 24 h, compared to normal control
Procedure: (§2) After various treatments for 24 h, cells were lysed, and protein quantification of the lysates was estimated using the BCA™ kit (Thermo Fisher Scientific Inc., Waltham, MA, USA). Proteins samples (30 µg) were resolved on a 10% SDS-PAGE and transferred onto a PVDF membrane and blocked with 5% nonfat milk in TBST (tris-buffered saline with Tween-20) buffer for 1 h followed by washing in TBST buffer. The membrane was then probed with primary antibodies (GAPDH, HDAC8, p21^Waf1/Cip1, and acetyl-histone H3[Ac-Lys^9]) and incubated overnight at 4°C. The membrane was washed with TBST buffer and incubated with horseradish peroxidase-conjugated secondary antibody for 1 h at room temperature. Signal was captured using SuperSignal™ West Pico Plus chemiluminescent substrate (Thermo Fischer Scientific Inc., Waltham, MA, USA) on gel documentation system (G : BOX Chemi XRQ, Syngene).

[2] = molecular target: T2, recombinant human HDAC1 enzyme (Homo sapiens, UniProt Q13547); test: HDAC1 enzyme inhibition assay; format: biochemical
T2 construct: purchased Enzo Life Sciences, Inc. USA
Procedure: as §1

DMH-induced colon cancer = format: in vivo, Wistar rats; details: for ACF/5 cm^2 / Adenocarcinoma: 21 days treatment, quercetin, QMJ-2, QMJ-5 100 mg/kg p.o., mean ± SEM of six animals; for ACF/5 cm^2: DMH control 25 ± 2.1; for Adenocarcinoma: count in colon, DMH control 17 ± 1.7; for kidney index / liver index / spleen index: rat, in vivo, po, 100 mg/kg
Procedure: The two test compounds (QMJ-2 and QMJ-5) and quercetin were suspended in 0.25% w/v sodium carboxymethyl cellulose (CMC) and were administered orally (p.o.). 5-Fluorouracil (5-FU) which was used as a standard was procured in the form of injection and was administered intraperitonially (i.p.).
Colon cancer in experimental animals was induced using the highly specific carcinogen DMH, with few modifications from the previously described procedure. DMH was administered at a dose of 30 mg/kg i.p. once a week for 20 weeks. The incidence of aberrant crypt foci (ACF) and adenocarcinoma were confirmed by sacrificing few animals after 20 weeks of induction with DMH. Furthermore, the animals were randomized into five experimental groups, and various treatments were administered for a period of 21 days followed by the assessment of different parameters in the experimental animals.
(1) Experimental Groups • Group 1: animals received 0.25% CMC in water p.o. • Group 2: animals received 0.25% CMC in water p.o. (DMH control) • Group 3: animals received 5-FU at 10 mg/kg i.p. • Group 4: animals received quercetin at 100 mg/kg p.o. • Group 5: animals received QMJ-2 at 100 mg/kg p.o. • Group 6: animals received QMJ-5 at 100 mg/kg p.o.
(2) ACF Formation and Adenocarcinoma Incidence. The entire colon was excised from the experimental animals and was used to study the incidence of adenocarcinoma. The count and size were noted from each animal. For ACF formation, the distal part of the colon was excised, and the tissue was then cut open and fixed with 10% buffered formalin for 12 h. Following this, the tissue was stained with 0.1% methylene blue in PBS for 5 min. The tissues were then observed under microscope for ACF formation and were calculated as the number of counts/5 cm^2 in colon tissue.
(3) Colon Weight/Length Ratio and Organ Index. Length of the excised colon was measured in centimeters, and weight was measured in g. Colon weight/length ratio was then calculated. For the determination of organ index, major organs including spleen, liver, and kidney of the experimental animals were weighed in g and the respective index was calculated. […]

HDAC8 = test: Western blotting, HDAC8 expression; format: cell-based, human; details: HCT116 cells, 24 h, compared to normal control
Procedure: as §2

[3] = mean ± SEM of three experiments, read-out: HDAC1 IC50

T2 sequence (Q13547 whole entry): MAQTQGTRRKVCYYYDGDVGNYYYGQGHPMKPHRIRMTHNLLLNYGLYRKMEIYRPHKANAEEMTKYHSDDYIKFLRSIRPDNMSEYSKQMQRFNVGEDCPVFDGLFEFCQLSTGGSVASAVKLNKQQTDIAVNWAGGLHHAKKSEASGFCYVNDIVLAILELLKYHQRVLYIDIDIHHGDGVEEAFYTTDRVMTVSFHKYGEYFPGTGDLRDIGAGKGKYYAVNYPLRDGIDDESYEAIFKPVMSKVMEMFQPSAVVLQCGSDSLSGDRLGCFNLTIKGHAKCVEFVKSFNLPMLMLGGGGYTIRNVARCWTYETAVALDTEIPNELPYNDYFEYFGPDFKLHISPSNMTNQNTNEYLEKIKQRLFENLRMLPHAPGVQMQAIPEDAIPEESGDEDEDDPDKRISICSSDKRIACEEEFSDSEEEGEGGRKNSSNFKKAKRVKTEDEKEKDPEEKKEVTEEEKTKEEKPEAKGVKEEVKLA

IC50 [1] [µM] | IC50 [2, 3] [µM] | kidney index (DMH-induced colon cancer) | liver index (DMH-induced colon cancer) | Structure (SMILES) | expression of p21^Waf1/Cip1 (p21^Waf1/Cip1) | ACF/5 cm^2 (DMH-induced colon cancer; 5-FU 10 mg/kg i.p.) | colon weight/length ratio (DMH-induced colon cancer; compared with DMH control, 5-FU 10 mg/kg i.p., others 100 mg/kg p.o., 21 days) | Adenocarcinoma (DMH-induced colon cancer; 5-FU 10 mg/kg i.p.) | spleen index (DMH-induced colon cancer) | HDAC8 expression (HDAC8) | IC50 ([2]; HDAC1 IC50, mean ± SEM of three experiments) [µM]
165 ± 11.1 | 34.1 ± 3.83 | no significant change | Significant reduction | Cc1ccc(-c2oc3ccccc3c(=O)c2O)cc1 [QMJ-2, 3-Hydroxy-2-(4-methylphenyl)-4H-1-benzopyran-4-one] | increased | 16 ± 2.1 /5 cm^2 and 16 ± 2.1^a /5 cm^2 | significant decrease | 14 ± 1.3 | significant decrease | – | –
163 ± 7.05 | 47.7 ± 6.3 | no significant change | Significant reduction | Cc1ccc(-c2oc3cc(C)ccc3c(=O)c2O)cc1 [QMJ-5, 3-Hydroxy-7-methyl-2-(4-methylphenyl)-4H-1-benzopyran-4-one] | increased | 15 ± 2.6 /5 cm^2 and 15 ± 2.6^a /5 cm^2 | – | 11 ± 0.8^a | – | significant reduction | –

Structure (SMILES) | IC50 [1] [µM] | IC50 [2, 3] [µM] | kidney index (DMH-induced colon cancer) | liver index (DMH-induced colon cancer) | expression of p21^Waf1/Cip1 (p21^Waf1/Cip1) | ACF/5 cm^2 (DMH-induced colon cancer; 5-FU 10 mg/kg i.p.) | colon weight/length ratio (DMH-induced colon cancer; compared with DMH control, 5-FU 10 mg/kg i.p., others 100 mg/kg p.o., 21 days) | Adenocarcinoma (DMH-induced colon cancer; 5-FU 10 mg/kg i.p.) | spleen index (DMH-induced colon cancer) | HDAC8 expression (HDAC8) | IC50 ([2]; HDAC1 IC50, mean ± SEM of three experiments) [µM]
O=c1c(O)c(-c2ccc(O)c(O)c2)oc2cc(O)cc(O)c12 [Quercetin, quercetin, reference compound] | 43.4 ± 2.17 | – | – | – | – | 19 ± 2.6 /5 cm^2 | – | 15 ± 1.1 | significant decrease | significant reduction | 26.7 ± 3.77

— publication PMC6327263, “Evaluation of Novel 3-Hydroxyflavone Analogues as HDAC Inhibitors against Colorectal Cancer” (Advances in Pharmacological Sciences, 2018)
